The values below are quoted from earlier work in patent publication US9725402B2, “Nitroso compounds as nitroxyl donors and methods of use thereof” (priority 2008, dated 2017).

In one series the test system is pheochromocytoma. The conditions noted are these: subcutaneous xenograft, dose nontoxic to nude mice.
The subject of series [1] is cultured breast cancer cells.
For a further series, the system named is breast cancer cells. The conditions noted are these: mouse xenograft model.
The subject of series [2] is myocardial ischemia/reperfusion injury. The conditions noted are these: administered during ischemia and 5 minutes prior to reperfusion, anesthetized rabbits.

`O=S(=O)(NO)c1ccccc1` [PA, N-hydroxybenzenesulfonamide]: the “pH at which compound is a nitroxyl donor” value (nitroxyl donor only at high pH) was > 9. Also, under “physiological conditions, oxidative pathway”, the “species donated under physiological conditions” value is recorded as “nitric oxide donor”.
As for `[Na+].[Na+].[O-][N+]([O-])=NO` [Angeli's salt, sodium α-oxyhyponitrite], the “toxicity to cancer cells” value in the series with cancer cells (pH 7.4) is listed as “no toxicity”. The “cytotoxicity to cancer cells” value in the series on cancer cells (weakly acidic solutions) was “strong cytotoxicity”. For the same compound, the tumor growth result in the series with pheochromocytoma is on record as “inhibit tumor growth”. Also, the “proliferation of cultured breast cancer cells” value in series [1] is reported as “inhibits the proliferation”. In addition, the tumor mass result with breast cancer cells is reported as “decreases tumor mass”. Besides, the myocardial ischemia/reperfusion injury entry in series [2] was “increased myocardial ischemia/reperfusion injury”.
